Source: patent US8324264B1, “Inhibitors of bacterial biofilms and related methods” (Sequoia Sciences, Inc., priority 2011, dated 2012)
Values after ≈ are worked out from the molar mass of the structure shown. Read-outs that look alike come from different tables or passages of the source.

Assays:
E. coli biofilms = test: Biofilm growth assay (spreading biofilm on semi-solid agar), E. coli; type: cell-based; details: biofilm growth assay, overnight 37° C., vs negative controls, Tables 1-5; for IC85: Escherichia coli, read-out: E. coli: concentration that reduces the area of the spreading biofilm by greater than or equal to 85%
Source text: (§1) “Biofilm Growth Assay” refers to an assay performed on semi-solid agar surface where the bacteria collectively move out from an inoculation point. To those skilled in the art, the act of bacteria collectively moving out from an inoculation point on a semi-solid surface may be referred to as swarming or a spreading biofilm. (Anderson, et al Microbiology, 2003, 149, 37-46; Daniels, et al. FEMS Microbiology Reviews, 2004, 28, 261-289). The procedure to perform this assay is described in detail in the Examples. This type of surface motility by bacteria has been reported in the literature by those skilled in the art. […] These references are incorporated herein by reference in their entirety.
(§2) The biofilm growth assay was carried out to measure swarming or biofilm spreading on semi-solid agar media in round plates (for example, 100×15 mm), also referred to as Petri dishes. For E. coli, the plates contained LB medium with 0.6% agar and 0.5% glucose. P. aeruginosa plates were made with M8 agar supplemented with 0.2% glucose, 100 μM CaCl2, 1 mM MgSO4, and 0.5% Casamino acids. The agar plates of this assay consisted of 0.4% to 0.7% agar (Bacto or Noble agar), although other media may also be used as described in the literature and known to those skilled in the art. Test compounds at the desired concentration were added to the cooled, autoclaved media. Portions of the media were then poured into the plates (20 mL/plate), and the plates allowed to dry at room temperature for approximately 3 to 4 hours. Alternatively, however, plates may be dried in a laminar flow hood for approximately fifteen to twenty minutes. Overnight cultures were grown in a 37° C. shaker in LB (E. coli) or TSB (P. aeruginosa). Plates were inoculated by placing 5 μL of the appropriate overnight culture in the centers of the plates. The plates then were incubated overnight at 37° C. The area of the zone of spreading bacteria was then measured and replicates are averaged. Percent inhibition was calculated as 100×(area without compound−area with compound)/(area without compound). An active compound was considered that which reduces the area of the spreading biofilm compared to negative controls by greater than or equal to 85%. The values shown in Table 1 are the concentrations of compounds (μg/ml) tested in the biofilm growth assay that reduce the area of the spreading biofilm compared to negative controls by greater than or equal to 85% unless noted differently in Table 1. A > (“greater than” symbol) as used in Table 1 is well understood to those skilled in the art as an indication that the listed concentration was not effective at this concentration.
(§3) All of the compounds shown in Tables 2, 3, 4, and 5, below, were prepared semi-synthetically from oleanolic acid, except for Compounds 2 and 3. Compound 2 was prepared from ursolic acid. Compound 3 was prepared from hederagenin, but could also be prepared from an oleanolic acid analog with a hydroxyl at C23 or C24. These compounds were tested in the spreading biofilm assay according to the methods detailed in Example I, above. The values shown in Tables 2, 3, 4, and 5 are the concentrations of compounds tested in the biofilm growth assay that reduce the area of the spreading biofilm compared to negative controls by greater than or equal to 85%.

P. aeruginosa biofilms = test: Biofilm growth assay (spreading biofilm on semi-solid agar), P. aeruginosa; type: cell-based; details: for IC85: Pseudomonas aeruginosa, read-out: P. aeruginosa: concentration that reduces the area of the spreading biofilm by greater than or equal to 85%
Source text: as §1, §2, §3

[1] = biofilm growth assay, overnight 37° C., vs negative controls, Tables 1-5

Compound | IC85 (E. coli biofilms) [µg/mL] | IC85 (P. aeruginosa biofilms; [1]) [µg/mL] | E. coli: concentration that reduces the area of the spreading biofilm by greater than or equal to 85% (E. coli biofilms) [µg/mL] | P. aeruginosa: concentration that reduces the area of the spreading biofilm by greater than or equal to 85% (P. aeruginosa biofilms; [1]) [µg/mL] | IC85 (P. aeruginosa biofilms) [µg/mL]
CC1(C)CC[C@]2(C(=O)Nc3nnc(S)s3)CC[C@]3(C)C(=CCC4[C@@]5(C)Cc6c(n[nH]c6N)C(C)(C)C5CC[C@]43C)C2C1 (stereo partly drawn) [Compound 74, (4aS,6aS,6bR,13aR)-12-Amino-N-(5-mercapto-1,3,4-thiadiazol-2-yl)-2,2,6a,6b,9,9,13a-heptamethyl-2,3,4,4a,5,6,6a,6b,7,8,8a,9,11,13,13a,13b,14,15b-octadecahydro-1H-chryseno[1,2-f]indazole-4-a-carboxamide] | > 2 | 1 (≈ 1.64 µM) |  |  | 
CC1(C)CC[C@]2(C(=O)O)CC[C@]3(C)C(=C(c4cccc5c4CCNC5)CC4[C@@]5(C)Cc6c(n[nH]c6N)C(C)(C)C5CC[C@]43C)C2C1 (stereo partly drawn) [Example 47, (4aS,6aS,6bR,13aR)-12-Amino-2,2,6a,6b,9,9,13a-heptamethyl-15-(1,2,3,4-tetrahydroisoquinolin-5-yl)-2,3,4,4a,5,6,6a,6b,7,8,8a,9,11,13,13a,13b,14,15b-octadecahydro-1H-chryseno[1,2-f]indazole-4-a-carboxylic acid] |  |  | 1 | 0.5 | 
CCC1=C2[C@@H]3CC(C)(C)CC[C@]3(C(=O)O)CC[C@@]2(C)[C@]2(C)CC[C@H]3C(C)(C)c4n[nH]c(N)c4C[C@]3(C)C2C1 (stereo partly drawn) [Example 14, (4aS,6aS,6bR,8aR,13aR,15bS)-12-Amino-15-ethyl-2,2,6a,6b,9,9,13a-heptamethyl-2,3,4,4a,5,6,6a,6b,7,8,8a,9,11,13,13a,13b,14,15b-octadecahydro-1H-chryseno[1,2-f]indazole-4-a-carboxylic acid] | 2 (≈ 3.83 µM) | 0.5 (≈ 0.958 µM) |  |  | 
CC1(C)CC[C@]2(C(=O)O)CC[C@]3(C)C(=C(c4ccco4)CC4[C@@]5(C)Cc6c(n[nH]c6N)C(C)(C)[C@@H]5CC[C@]43C)[C@@H]2C1 (stereo partly drawn) [Example 7, (4aS,6aS,6bR,13aR)-12-Amino-15-(furan-2-yl)-2,2,6a,6b,9,9,13a-heptamethyl-2,3,4,4a,5,6,6a,6b,7,8,8a,9,11,13,13a,13b,14,15b-octadecahydro-1H-chryseno[1,2-f]indazole-4-a-carboxylic acid] | 1 (≈ 1.79 µM) | 0.25 (≈ 0.447 µM) |  |  | 
CC1(C)CC[C@]2(C(=O)O)CC[C@]3(C)C(=C(c4ccc(N5CCOCC5)nc4)CC4[C@@]5(C)Cc6c(n[nH]c6N)C(C)(C)[C@@H]5CC[C@]43C)[C@@H]2C1 (stereo partly drawn) [Example 54, (4aS,6aS,6bR,8aR,13aR,15bS)-12-Amino-2,2,6a,6b,9,9,13a-heptamethyl-15-(6-morpholinopyridin-3-yl)-2,3,4,4a,5,6,6a,6b,7,8,8a,9,11,13,13a,13b,14,15b-octadecahydro-1H-chryseno[1,2-f]indazole-4-a-carboxylic acid] |  |  | 2 | 1 | 
CC1(C)CC[C@]2(C(=O)NO)CC[C@]3(C)C(=CCC4[C@@]5(C)Cc6c(n[nH]c6N)C(C)(C)[C@@H]5CC[C@]43C)[C@@H]2C1 (stereo partly drawn) [Compound 65, (4aS,6aS,6bR,13aR)-12-Amino-N-hydroxy-2,2,6a,6b,9,9,13a-heptamethyl-2,3,4,4a,5,6,6a,6b,7,8,8a,9,11,13,13a,13b,14,15b-octadecahydro-1H-chryseno[1,2-f]indazole-4-a-carboxamide] | 0.25 (≈ 0.491 µM) | 0.25 (≈ 0.491 µM) |  |  | 
CN(C)c1[nH]nc2c1C[C@@]1(C)C(CC[C@]3(C)C1CC=C1C4CC(C)(C)CC[C@]4(C(=O)O)CC[C@]13C)C2(C)C (stereo partly shown) [J] | > 16 | > 16 |  |  | 
CC1(C)CC[C@]2(c3n[nH]c(O)c3N3CCOCC3)CC[C@]3(C)C(=CCC4[C@@]5(C)Cc6c(n[nH]c6N)C(C)(C)[C@@H]5CC[C@]43C)[C@@H]2C1 (stereo partly drawn) [Compound 88, 3-((4aS,6aS,6bR,13aR)-12-Amino-2,2,6a,6b,9,9,13a-heptamethyl-2,3,4,4a,5,6,6a,6b,7,8,8a,9,11,13,13a,13b,14,15b-octadecahydro-1H-chryseno[1,2-f]indazol-4-a-yl)-4-morpholino-1H-pyrazol-5-ol] | 0.5 (≈ 0.811 µM) | 0.25 (≈ 0.405 µM) |  |  | 
CC1(C)CC[C@]2(C(=O)O)CC[C@]3(C)C(=CCC4[C@@]5(C)Cc6c(n[nH]c6Br)C(C)(C)C5CC[C@]43C)C2C1 (stereo partly shown) [H] | > 8 | 8 (≈ 14.3 µM) |  |  | 
CC1(C)CC[C@]2(C(=O)O)CC[C@]3(C)C(=C(c4cccc5cnccc45)CC4[C@@]5(C)Cc6c(n[nH]c6N)C(C)(C)C5CC[C@]43C)C2C1 (stereo partly drawn) [Example 46, (4aS,6aS,6bR,13aR)-12-Amino-15-(isoquinolin-5-yl)-2,2,6a,6b,9,9,13a-heptamethyl-2,3,4,4a,5,6,6a,6b,7,8,8a,9,11,13,13a,13b,14,15b-octadecahydro-1H-chryseno[1,2-f]indazole-4-a-carboxylic acid] |  |  | 1 | 0.5 | 
C[C@H]1[C@H](C)CC[C@]2(C(=O)O)CC[C@]3(C)C(=CCC4[C@@]5(C)Cc6c(n[nH]c6N)C(C)(C)[C@@H]5CC[C@]43C)[C@H]12 (stereo partly drawn) [Example 2, (4aS,6aS,6bR,13aR)-12-Amino-2,2,6a,6b,9,9,13a-heptamethyl-2,3,4,4a,5,6,6a,6b,7,8,8a,9,11,13,13a,13b,14,15b-octadecahydro-1H-chryseno[1,2-f]indazole-4-a-carboxylic acid] | 1 (≈ 2.03 µM) | 0.5 (≈ 1.01 µM) |  |  | 
CN(C)c1cccc(C2=C3C4CC(C)(C)CC[C@]4(C(=O)O)CC[C@@]3(C)[C@]3(C)CCC4C(C)(C)c5n[nH]c(N)c5C[C@]4(C)C3C2)c1 (stereo partly drawn) [Example 21, (4aS,6aS,6bR,13aR)-12-Amino-15-(3-(dimethylamino)phenyl)-2,2,6a,6b,9,9,13a-heptamethyl-2,3,4,4a,5,6,6a,6b,7,8,8a,9,11,13,13a,13b,14,15b-octadecahydro-1H-chryseno[1,2-f]indazole-4-a-carboxylic acid] |  |  | >2 | 0.5 | 
C[C@H]1[C@H](C)CC[C@]2(CO)CC[C@]3(C)C(=CC[C@@H]4[C@@]5(C)CC[C@H](O)C(C)(C)[C@@H]5CC[C@]43C)[C@H]12 [Uvaol, reference compound] | > 8 | > 128 |  |  | 
CC1(C)CC[C@]2(C(=O)O)CC[C@]3(C)C(=C(c4ccc(N5CCCC5)nc4)CC4[C@@]5(C)Cc6c(n[nH]c6N)C(C)(C)C5CC[C@]43C)C2C1 (stereo partly drawn) [Example 45, (4aS,6aS,6bR,13aR)-12-Amino-2,2,6a,6b,9,9,13a-heptamethyl-15-(6-(pyrrolidin-1-yl)pyridin-3-yl)-2,3,4,4a,5,6,6a,6b,7,8,8a,9,11,13,13a,13b,14,15b-octadecahydro-1H-chryseno[1,2-f]indazole-4-a-carboxylic acid] |  |  | 1 | 0.5 | 
CC1(C)CC[C@]2(C(=O)O)CC[C@]3(C)C(=CC[C@@H]4[C@@]5(C)C[C@@H](O)[C@H](O)C(C)(C)[C@@H]5CC[C@]43C)[C@@H]2C1 [Maslinic acid, reference compound] |  |  |  |  | 4 (≈ 8.46 µM)
C[C@@H]1CC[C@]2(C)CC[C@]3(C)C(=CCC4[C@@]5(C)CC[C@H](O)C(C)(C)C5CC[C@]43C)C2[C@H]1C (stereo partly drawn) [alpha-Amyrin, reference compound] |  | > 32 |  |  | 
C[C@H]1[C@H](C)CC[C@]2(C(=O)O)CC[C@]3(C)C(=CC[C@@H]4[C@@]5(C)C[C@@H](O)[C@H](O)C(C)(C)[C@@H]5CC[C@]43C)[C@H]12 [Corosolic acid, reference compound] |  | 4 (≈ 8.46 µM) |  |  | 
